Patent publication US9409884B2 (Rigel Pharmaceuticals, Inc., priority 2012, dated 2016)

Target: AMPK
Test: AMPK activation, enzyme-linked immunosorbent assay
Format: biochemical
Conditions: Table 8, compounds of Table 1
Procedure, shortened: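 AMPK activation by test compounds was measured by enzyme-linked immunosorbent assay.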

| EC50 [nM] | Compound |
| --- | --- |
| < 100 | O=C(NC1CCN(Cc2ccc(OC(F)(F)F)cc2)CC1)c1cc2cc(O[C@@H]3CCN(Cc4ccc(Oc5ccc(F)cc5)cc4)C[C@H]3F)ccc2o1 [Compound 1-170, 5-((3,4-trans)-3-fluoro-1-(4-(4-fluorophenoxy)benzyl)piperidin-4-yloxy)-N-(1-(4-(trifluoromethoxy)benzyl)piperidin-4-yl)benzofuran-2-carboxamide] |
| < 100 | COC(=O)c1ccc(CN2CCC(NC(=O)c3ccc(OC4CCN(c5ccc(C(F)(F)F)cc5)CC4)cn3)CC2)cc1 [Compound 1-8, methyl 4-((4-(5-(1-(4-(trifluoromethyl)phenyl)piperidin-4-yloxy)picolinamido)piperidin-1-yl)methyl)benzoate] |
| < 100 | N#Cc1ccc(-n2cc(CN3CC[C@@H](Oc4ccc5oc(C(=O)NC6CCN(Cc7ccc(OC(F)(F)F)cc7)CC6)cc5c4)[C@H](F)C3)cn2)cc1 [Compound 1-171, 5-((3,4-trans)-1-((1-(4-cyanophenyl)-1H-pyrazol-4-yl)methyl)-3-fluoropiperidin-4-yloxy)-N-(1-(4-(trifluoromethoxy)benzyl)piperidin-4-yl)benzofuran-2-carboxamide] |
| 1000 to 5000 | O=C(NC1CCN(Cc2ccncc2)CC1)c1cccc(OC2CCN(c3ccc(C(F)(F)F)cc3)CC2)n1 [Compound 1-43, N-(1-(pyridin-4-ylmethyl)piperidin-4-yl)-6-(1-(4-(trifluoromethyl)phenyl)piperidin-4-yloxy)picolinamide] |
| 100 to 500 | CN(C(=O)c1cc2cc(OC3CCN(c4ccc(C(F)(F)F)cc4)CC3)ccc2o1)C1CCN(Cc2ccccc2C#N)CC1 [Compound 1-111, N-(1-(2-cyanobenzyl)piperidin-4-yl)-N-methyl-5-(1-(4-(trifluoromethyl)phenyl)piperidin-4-yloxy)benzofuran-2-carboxamide] |

Same assay, conditions: Table 9, compounds of Table 2

| EC50 [nM] | Compound |
| --- | --- |
| 500 to 1000 | Cn1c2c(c3cc(C(=O)NC4CCN(Cc5ccc(C(F)(F)F)cc5)CC4)ccc31)CN(Cc1ccc(C(F)(F)F)cc1)CC2 [Compound 2-17, N-(1-(4-trifluoromethylbenzyl)piperidin-4-yl)-5-methyl-2-(4-(trifluoromethyl)benzyl)-2,3,4,5-tetrahydro-1H-pyrido[4,3-b]indole-8-carboxamide] |
| 5000 to 10000 | O=C(NC1CCN(Cc2ccncc2)CC1)c1ccc2[nH]c3c(c2c1)CN(Cc1ccccc1)CC3 [Compound 2-7, 2-benzyl-N-(1-(pyridin-4-ylmethyl)piperidin-4-yl)-2,3,4,5-tetrahydro-1H-pyrido[4,3-b]indole-8-carboxamide] |
| 1000 to 5000 | O=C(NC1CCN(S(=O)(=O)c2cccc(C(F)(F)F)c2)CC1)c1ccc2[nH]c3c(c2c1)CN(Cc1ccc(C(F)(F)F)cc1)CC3 [Compound 2-30, 2-(4-(trifluoromethyl)benzyl)-N-(1-(3-(trifluoromethyl)phenylsulfonyl)piperidin-4-yl)-2,3,4,5-tetrahydro-1H-pyrido[4,3-b]indole-8-carboxamide] |

Same assay, conditions: Table 10, compounds of Table 3

| EC50 [nM] | Compound |
| --- | --- |
| < 100 | N#Cc1ccc(C(=O)N2CCC(NC(=O)c3nc4ccc(OC5CCN(c6ccc(C(F)(F)F)cc6)CC5)cc4o3)CC2)cc1 [Compound 3-6, N-(1-(4-cyanobenzoyl)piperidin-4-yl)-6-(1-(4-(trifluoromethyl)phenyl)piperidin-4-yloxy)benzo[d]oxazole-2-carboxamide] |
| < 100 | N#Cc1ccc(CN2CCC(NC(=O)c3cnc(OC4CCN(Cc5ccc(C(F)(F)F)cc5)CC4)s3)CC2)cc1 [Compound 3-25, N-(1-(4-cyanobenzyl)piperidin-4-yl)-2-(1-(4-(trifluoromethyl)benzyl)piperidin-4-yloxy)thiazole-5-carboxamide] |

Same assay, conditions: Table 12, compounds of Table 5

| EC50 [nM] | Compound |
| --- | --- |
| < 1000 | O=C(NC1CCN(Cc2ccccc2)CC1)c1ccc(OC2CCN(Cc3ccc(Cl)cc3)CC2)c(Cl)c1 [Compound 5-65, N-(1-benzylpiperidin-4-yl)-3-chloro-4-(1-(4-chlorobenzyl)piperidin-4-yloxy)benzamide] |
| < 1000 | N#Cc1ccc(CN2CCC(NC(=O)c3cccc(OC4CCN(Cc5ccc(C(F)(F)F)cc5)CC4)c3)CC2)cc1 [Compound 5-125, N-(1-(4-cyanobenzyl)piperidin-4-yl)-3-(1-(4-(trifluoromethyl)benzyl)piperidin-4-yloxy)benzamide] |
| > 100000 | N#Cc1ccc(CN2CCC(Oc3ccc(C(=O)NC4CCNCC4)cc3)CC2)cc1 [Compound 5-79, 4-(1-(4-cyanobenzyl)piperidin-4-yloxy)-N-(piperidin-4-yl)benzamide] |
| > 100000 | N#Cc1ccc(CN2CCC(NC(=O)c3cccc(OC4CCN(Cc5ccc(OC(F)(F)F)cc5)CC4)c3)CC2)cc1 [Compound 5-123, N-(1-(4-cyanobenzyl)piperidin-4-yl)-3-(1-(4-(trifluoromethoxy)benzyl)piperidin-4-yloxy)benzamide] |
| < 1000 | O=C(NC1CCN(Cc2ccc(Cl)cc2)CC1)c1ccc(OC2CCN(Cc3ccc(F)c(F)c3)CC2)c(F)c1 [Compound 5-71, N-(1-(4-chlorobenzyl)piperidin-4-yl)-4-(1-(3,4-difluorobenzyl)piperidin-4-yloxy)-3-fluorobenzamide] |
| < 1000 | O=C(NC1CCN(Cc2ccccc2)CC1)c1ccc(OC2CCN(Cc3ccncc3)CC2)c(Cl)c1 [Compound 5-6, N-(1-benzylpiperidin-4-yl)-3-chloro-4-(1-(pyridin-4-ylmethyl)piperidin-4-yloxy)benzamide] |

Same assay, conditions: Table 13, compounds of Table 6

| EC50 [nM] | Compound |
| --- | --- |
| 1000 to 10000 | N#Cc1ccc(CC(=O)Nc2ccc3oc(C(=O)NC4CCN(Cc5ccc(C#N)cc5)CC4)cc3c2)cc1 [Compound 6-67, N-(1-(4-cyanobenzyl)piperidin-4-yl)-5-(2-(4-cyanophenyl)acetamido) benzofuran-2-carboxamide] |
| < 100 | COc1ccc(CN2CCC(NC(=O)c3cc4cc(C(=O)N5CCN(Cc6cccc(S(C)(=O)=O)c6)CC5)ccc4o3)CC2)cc1F [Compound 6-141, N-(1-(3-fluoro-4-methoxybenzyl)piperidin-4-yl)-5-(4-(3-(methylsulfonyl)benzyl)piperazine-1-carbonyl) benzofuran-2-carboxamide] |
| 1000 to 10000 | N#Cc1ccc(CN2CCC(NC(=O)c3cc4cc(NC(=O)C5CCN(Cc6cnn(-c7ccc(C#N)cc7)c6)CC5)ccc4o3)CC2)cc1 [Compound 6-42, N-(2-(1-(4-cyanobenzyl)piperidin-4-ylcarbamoyl)benzofuran-5-yl)-1-((1-(4-cyanophenyl)-1H-pyrazol-4-yl)methyl)piperidine-4-carboxamide] |
| 1000 to 10000 | CS(=O)(=O)c1ccc(C(=O)Nc2ccc3oc(C(=O)NC4CCN(Cc5ccc(C#N)cc5)CC4)cc3c2)cc1 [Compound 6-85, N-(1-(4-cyanobenzyl)piperidin-4-yl)-5-(4-(methylsulfonyl)benzamido) benzofuran-2-carboxamide] |
| 100 to 1000 | N#Cc1ccc(CN2CCC(NC(=O)c3cc4cc(C(=O)NC5CCN(Cc6ccc(-n7cccn7)cc6)CC5)ccc4o3)CC2)cc1 [Compound 6-92, N5-(1-(4-(lH-pyrazol-1-yl)benzyl)piperidin-4-yl)-N2-(1-(4-cyanobenzyl)piperidin-4-yl)benzofuran-2,5-dicarboxamide] |
| < 100 | COc1ccc(CN2CCC(NC(=O)c3cc4cc(C(=O)N5CCN(Cc6ccc(-n7cccn7)cc6)CC5)ccc4o3)CC2)cc1 [Compound 6-96, 5-(4-(4-(1H-pyrazol-1-yl)benzyl)piperazine-1-carbonyl)-N-(1-(4-methoxybenzyl)piperidin-4-yl)benzofuran-2-carboxamide] |
| < 100 | COc1ccc(CN2CCC(NC(=O)c3cc4cc(C(=O)N5CCC(Oc6ccc(S(=O)(=O)C(F)(F)F)cc6)CC5)ccc4o3)CC2)cc1F [Compound 6-137, N-(1-(3-fluoro-4-methoxybenzyl)piperidin-4-yl)-5-(4-(4-(trifluoromethylsulfonyl)phenoxy)piperidine-1-carbonyl)benzofuran-2-carboxamide] |
| 1000 to 10000 | N#Cc1ccc(CN2CCC(NC(=O)c3cc4cc(NC(=O)c5cnn(Cc6ccc(C(F)(F)F)cc6)c5)ccc4o3)CC2)cc1 [Compound 6-72, N-(2-(1-(4-cyanobenzyl)piperidin-4-ylcarbamoyl)benzofuran-5-yl)-1-(4-(trifluoromethyl)benzyl)-1H-pyrazole-4-carboxamide] |

Same assay, conditions: Table 14, compounds of Table 7

| EC50 [nM] | Compound |
| --- | --- |
| < 1000 | COc1ccc(CN2CCC(NC(=O)c3ccc(C(=O)N4CCC(C(=O)c5ccc(OC)cc5)CC4)nc3)[C@H](F)C2)cc1 (stereo partly drawn) [Compound 7-26, N-((3,4-trans)-3-fluoro-1-(4-methoxybenzyl)piperidin-4-yl)-6-(4-(4-methoxybenzoyl)piperidine-1-carbonyl)nicotinamide] |
| < 1000 | COc1ccc(CN2CCC(NC(=O)c3ccc(C(=O)N4CCC(Oc5ccc(C(=O)C6CC6)cc5)CC4)nc3)CC2)cc1 [Compound 7-120, 6-(4-(4-(cyclopropanecarbonyl)phenoxy)piperidine-1-carbonyl)-N-(1-(4-methoxybenzyl)piperidin-4-yl)nicotinamide] |
| < 1000 | CC(C)S(=O)(=O)c1ccc(N2CCN(C(=O)c3ccc(C(=O)Nc4ccc(Oc5ccc(S(F)(F)(F)(F)F)cc5)nc4)nc3)CC2)cc1 [Compound 7-6, 5-(4-(4-(isopropylsulfonyl)phenyl)piperazine-1-carbonyl)-N-(6-(4-(pentafluorosulfanyl)phenoxy)pyridin-3-yl)picolinamide] |
